Experiments:
[1] = tested on: large crabgrass; experiment: greenhouse-grown crabgrass treated with non-insulated CO2 prototype, visual percent control; format: in vivo; conditions: for % control: 2 lbs CO2; for percent control: 2-3 tiller greenhouse-grown, seven days after treatment (FIG. 2)
Procedure: (§1) Greenhouse-grown crabgrass plants were treated with the prototype containing either an 8002 flat fan nozzle (which was measured to release 2 pounds of CO2 per minute) or with an 8004 flat fan nozzle (which releases 4 pounds of CO2 per minute), to determine if the rate of application affects the percent control achieved. Control means killing or death of the plants as determined by visual observation. The percent control is a visual rating of the treated plant compared to an untreated control plant. In other words, it is the percent of plant death. Trials were conducted in triplicate.
Similarly, treatment for 15 seconds with the 2 lb/min nozzle results in 17 percent control with 0.5 pounds of CO2 dispensed, while treatment with the 4 lb/min nozzle for 5 seconds results in 12 percent control with 0.3 pounds of CO2 dispensed. From this study, it was concluded that for crabgrass, the total amount (dose) of CO2 applied correlates with % control. See FIG. 4, which graphs % control vs. CO2 dose with two different application rates.
In the data presented in FIG. 3, the crabgrass plants are larger. They are at the 3-4 tiller stage, whereas the plants in the data presented in FIG. 2 were 2-3 tiller plants. The CO2 application controlled both plant sizes well, and with the larger plants the same trend of percent control corresponding to the total pounds of CO2 applied was observed. In both cases the LD50 is over 1 pound CO2/plant.
(§2) Most commercial herbicides achieve 80% control or better. The prototype used 2 pounds of CO2 to achieve this level of control for one 6″ plant. At the 2 lb/plant dispensing rate, a commercial 25-lb cylinder of CO2 would only treat 10 plants; clearly efficiency increases were needed to create a viable backpack sprayer system. An insulating cone was attached around the nozzle with the expectation of possibly achieving a modest increase in efficiency, perhaps cutting the CO2 requirement by 20-50%.

[2] = tested on: crabgrass; experiment: field-grown crabgrass treated with CO2 prototype with insulating cone, percent control; format: in vivo; conditions: for % control: insulated prototype, 0.15 lbs CO2
Procedure: as §1, §2
Unexpectedly, a greater than ten-fold reduction in the CO2 usage was achieved (Table 1). The results are especially remarkable since field-grown plants (treated with the insulated design) are usually harder to kill than greenhouse-grown plants that were treated with the non-insulated design.

With `O=C=O` [CO2, carbon dioxide] the “% control” value ([1]; 2-3 tiller greenhouse, non-insulated prototype) was 75%, the LD50 ([1]; 2-3 tiller plants, non-insulated prototype) was “over 1 pound CO2/plant” and the percent control ([1]; 2 lb/min nozzle, 15 seconds, 0.5 pounds of CO2 dispensed) was 17%. For the same molecule, the percent control ([1]; 2 lb/min nozzle, 30 seconds, one pound of CO2 dispensed) was 40%, the “% control” value ([1]; 3-4 tiller greenhouse, non-insulated prototype) was 87% and the LD50 ([1]; 3-4 tiller plants, non-insulated prototype) was “over 1 pound CO2/plant”. For the same molecule, the percent control ([1]; 4 lb/min nozzle, 5 seconds, 0.3 pounds of CO2 dispensed) was 12%, the percent control ([1]; 4 lb/min nozzle, 15 seconds, one pound of CO2 dispensed) was 42% and the “amount of CO2 used to achieve 80% control or better” value ([1]; non-insulated prototype, one 6″ plant) was 2 pounds. The “LD50 (lethal dose to 50% of plants)” value ([1]; without insulated cone) was 2 pounds of CO2 per plant, the “% control” value ([2]; 2-3 tiller field) was 80+ % and the “% control” value ([2]; 2-3 tiller field, listed as carbon dioxide) was at least 80%. For the same molecule, the “% control” value ([2]; 3-4 tiller field) was 80+ %, the “% control” value ([2]; 3-4 tiller field, listed as carbon dioxide) was at least 80% and the “LD50 (lethal dose to 50% of plants)” value ([2]; with insulated cone) was “less than 0.2 lbs/CO2 per plant”.
